# Measured values published in patent US7276531B2, “G-lactam derivatives as prostaglandin agonists” (Applied Research Systems ARS Holding N.V., priority 2003, dated 2007).
# Columns and labels:
# [1] = target: h-EP2 (Homo sapiens, UniProt P43116); test: Prostaglandin EP2 receptor binding assay (3H-PGE2 SPA); conditions: EP2 receptor membranes, 20 nM 3H-PGE2, pH 6.0
# Experimental: Compounds of the invention were tested in an EP2 receptor binding assay of the following protocol. As referred to herein, the term an “EP2 receptor binding assay” designates the following protocol.
# [2] = target: h-EP4 (Homo sapiens, UniProt P35408); test: EP4 receptor binding assay (3H-PGE2 SPA); conditions: EP4 receptor membranes, 20 nM 3H-PGE2, pH 6.0
# Chain of h-EP4 (P35408 whole entry): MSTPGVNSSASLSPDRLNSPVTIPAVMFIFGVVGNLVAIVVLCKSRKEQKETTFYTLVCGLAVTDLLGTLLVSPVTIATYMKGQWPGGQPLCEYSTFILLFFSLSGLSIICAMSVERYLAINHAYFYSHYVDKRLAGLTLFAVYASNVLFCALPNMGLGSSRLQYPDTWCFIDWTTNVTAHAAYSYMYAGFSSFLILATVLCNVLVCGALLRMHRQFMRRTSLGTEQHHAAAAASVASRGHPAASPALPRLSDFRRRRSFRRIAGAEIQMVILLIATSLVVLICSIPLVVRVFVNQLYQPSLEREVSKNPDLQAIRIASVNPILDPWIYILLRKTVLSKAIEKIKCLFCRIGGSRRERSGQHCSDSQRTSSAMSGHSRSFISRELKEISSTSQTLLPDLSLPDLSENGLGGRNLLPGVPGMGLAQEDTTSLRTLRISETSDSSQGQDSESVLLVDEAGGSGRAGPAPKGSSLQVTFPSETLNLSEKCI
# Experimental: Compounds of the invention were tested in an EP4 receptor binding assay of the following protocol.
# [3] = target: T1, hEP2 receptors (Homo sapiens, UniProt P43116); test: EP2 cAMP assay, HEK293-EBNA cells transfected with pCEP4-hEP2 receptors; format: cell-based; conditions: total cAMP, 1 hour
# T1 construct: expressed in transfected cells; host or cells: HEK293-EBNA
# T1 sequence (P43116 whole entry): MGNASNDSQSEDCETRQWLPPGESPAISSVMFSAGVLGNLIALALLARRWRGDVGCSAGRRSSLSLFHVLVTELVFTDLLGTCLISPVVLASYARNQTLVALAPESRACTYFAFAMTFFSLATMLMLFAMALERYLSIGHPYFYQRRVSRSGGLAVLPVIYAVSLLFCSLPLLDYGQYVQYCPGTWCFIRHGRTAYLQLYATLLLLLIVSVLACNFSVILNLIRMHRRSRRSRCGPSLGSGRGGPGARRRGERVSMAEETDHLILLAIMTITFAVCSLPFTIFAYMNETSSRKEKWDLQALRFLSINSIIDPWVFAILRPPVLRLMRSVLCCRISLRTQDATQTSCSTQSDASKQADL
# Experimental: Compounds of the invention were tested in a total cAMP assay as follows. […] After overnight incubation, the medium was removed from each well and replaced with 45 μl of assay medium consisted of phenol red free D-MEM/F-12, 0.1% BSA (GibcoBRL) and 0.1 mM 3-isobutyl-1-methyl-xanthine (Sigma). […] Total cAMP (intra- and extra-cellular) was measured by using a cAMP-screen ELISA System (Tropix, #CS1000).
# [4] = target: T2, hEP4 receptors (Homo sapiens, UniProt P35408); test: EP4 cAMP assay, HEK293-EBNA cells transfected with pCEP4-hEP4 receptors; format: cell-based; conditions: total cAMP, 1 hour
# T2 construct: expressed in transfected cells; host or cells: HEK293-EBNA
# T2 sequence (P35408 whole entry): as the sequence (P35408 whole entry) above
# Experimental: Compounds of the invention were tested in a total cAMP assay as follows. HEK293-EBNA cells transfected with pCEP4-hEP4 receptors were seeded in 96 well opaque plate (Costar #3917) at 4×10^4 cells per well in 100 μl of culture medium (D-MEM/F12 supplemented with 10% FBS, […] L-glutamine, and 250 μg/ml of hygromycin; all from GibcoBRL) and incubated at 37° C. After overnight incubation, the medium was removed from each well and replaced with 45 μl of assay medium consisted of phenol red free D-MEM/F-12, 0.1% BSA (GibcoBRL) and 0.1 mM 3-isobutyl-1-methyl-xanthine (Sigma). After 15 minutes of incubation at 37° C., 16-16-dimethyl PGE-2 or compounds at desired concentrations in 20 μl of assay medium were added to cells and further incubated at 37° C. for 1 hour. Total cAMP (intra- and extra-cellular) was measured by using a cAMP-screen ELISA System (Tropix, #CS1000).
# [5] = test system: methacholine-induced bronchoconstriction; test: In vivo inhibition of guinea pig broncho-constriction (methacholine-induced); conditions: Cavia porcellus, IT (intra-tracheal) route, read-out: calculated effective dose (ED50), bronchoconstriction
# From the text: The activity of compounds of the invention in dilation of bronchiolar muscles, may be tested in different models. Guinea pig pulmonary-cholinergic in vivo model is generally used to test the materials for the treatments of asthma in human (Fleisch et al., 1985) Compounds of the invention can be tested in this methacholine-induced bronchomuscle constriction model as described below.
# Groups of 3 Duncan Hartley derived male or female guinea pigs weighing 250±50 g are anesthetized with pentobarbital sodium (50 mg/kg i.p., plus an additional 15 mg/kg i.p. if required) and succinylcholine chloride (2 mg/animal i.p.) is subsequently administered to prevent spontaneous respiration. Body temperature is maintained at 37° to 38° C.
# The trachea is cannulated and the guinea pig is ventilated with a Harvard rodent respirator in a closed system. Tracheal pressure is recorded through a side-arm of the cannula connected to a P23ID Statham transducer. […] Mean arterial pressure (BP) is monitored from a cannulated carotid artery, and heart rate (HR) is obtained from chest electrodes arranged for lead II. […]
# Compounds of the invention are also tested via intra-tracheal (IT) route of administration. […] Tracheal pressure (ITP), blood pressure and heart rate are measured immediately as indicated in the material and methods sections. […]
# [6] = test system: LPS-induced TNFα release; test: In vivo inhibition of LPS-induced TNFα release in mice; conditions: LPS 0.3 mg/kg i.p.
# Experimental: The anti-inflammatory activity of compounds of the invention may be assessed after a LPS challenge using the following protocol:
# Eight weeks old C3H/H mice (IFFA-CREDO, L'arbresle, France) receive an oral treatment with compounds of the invention 6 different doses (0.001, 0.01, 0.1, 1 or 3 and 10 mg/kg in 0.5% CMC/0.25% tween-20). Six mice are used by group. Fifteen minutes later, endotoxins (O111:B4 Sigma, 0.3 mg/kg) are intraperitoneally injected. Heparinized whole blood is collected by decapitation. TNFα level is determined in plasma by ELISA (R & D Systems, Abdingdon, UK). Control animals receive 0.5% CMC/0.25% tween-20 (10 ml/kg) as vehicle. Data obtained from experiments are expressed as the mean±SEM and analysed using one-way analysis of variance (ANOVA) followed by Dunnett's t-test.
# [7] = test system: mature mouse ovulation induction model; test: In vivo ovulation assay (mature mouse ovulation induction model); conditions: Mus musculus, po, read-out: calculated ED50 (dose of drug which produces 50% of its effect), ovulation; p.o. administration route, mice
# Experimental: Ovulation induction activity of compounds of the invention was tested in a mature mouse ovulation induction model.
# Mature 10-week-old CD-mice were used. Reagents were prepared as follows: PMSG (pregnant mare serum gonadotropin) (Calbiochem, cat #367222) and hCG (Serono) are diluted in PBS. PGE2 (Cayman, Ann Arbor Mich.) was dissolved in ethanol and diluted with 0.154 M […] Buffer (pH 8.0) to final concentration of ethanol of less than 3 percent. A compound of the invention (based on solubility) was pre-dissolved in ethanol, DMSO or other reagents. The compound of the invention was then diluted with saline or other diluents such as PBS or NP3S (5% N-methyl-pyrrolidinone/30% PEG400/25% PEG200/20% Propylene Glycol in saline). PMSG stimulates ovarian follicular development. After PMSG stimulation, the mature follicules can be stimulated to rupture and release oocytes by an ovulation trigger, such as hCG or a compound of the invention.
# The following test protocol is employed for the test animals (typically 5 animals per test group). • Day 1: Inject 5 IU PMSG in 200 μl PBS (i.p. 15:00 PM) • Day 2: No administration • Day 3: Injection of ovulation trigger hCG (i.p.) or hCG replacement (PGE2 or compound of the invention, s.c., i.v. or oral route), 15:00 PM • Day 4: Eighteen hours after injections of the ovulation triggers, animals were sacrificed by CO2 asphyxiation and abdominal cavities were opened using fine scissors and forceps. Uterus, oviducts and ovaries were collected and placed in pre-labeled dishes containing phosphate buffered saline (PBS). The collected tissues were transferred to the laboratory and intact oviduct carefully dissected out from uterus and ovary under the dissection microscope. The dissected oviducts were placed on the glass microscopic slide and covered with another slide. Two slides were taped on two edges. The numbers of ovulated ova in the oviducts were counted using upright microscope with 4× objective and recorded. […]
# Chain of h-EP2 (P43116 whole entry): as the sequence (P43116 whole entry) above
SMILES,Ki [1] [nM],Ki [2] [nM],EC50 [3] [nM],EC50 [4] [nM],also measured
O=C(O)c1ccc(CCN2C(=O)CC[C@@H]2/C=C\C=C(/c2ccccc2)C(F)(F)F)cc1 [Example 58],100,69,,,
"CCCC/C=C(C)/C=C/[C@H]1CCC(=O)N1CCc1ccc(C(=O)O)cc1 [Example 22, 4-(2-{(2R)-2-[(1E,3E)-3-methylocta-1,3-dienyl]-5-oxopyrrolidin-1-yl}ethyl)benzoic acid]",34,145,23,21,ED50 [5]: 0.4 mg/kg; % of Inhibition of TNF Release Mean ± SEM ([6]; oral dose 0.001 mg/kg): 46 ± 2%; % of Inhibition of TNF Release Mean ± SEM ([6]; oral dose 0.01 mg/kg): 49 ± 4%; % of Inhibition of TNF Release Mean ± SEM ([6]; oral dose 0.1 mg/kg): 59 ± 2%; % of Inhibition of TNF Release Mean ± SEM ([6]; oral dose 1 mg/kg): 70 ± 4%; % of Inhibition of TNF Release Mean ± SEM ([6]; oral dose 10 mg/kg): 87 ± 2%
"C/C(=C\C=C\[C@H]1CCC(=O)N1CCc1ccc(C(=O)O)cc1)C1CC1 [Example 63, 4-(2-{(2R)-2-[(1E,3E)-4-cyclopropylpenta-1,3-dienyl]-5-oxopyrrolidin-1-yl}ethyl)benzoic acid]",277,165,,,
"CC/C=C/C=C\[C@H]1CCC(=O)N1CCc1ccc(C(=O)O)cc1 [Example 7, 4-(2-{(2R)-2-[(1Z,3E)-hexa-1,3-dienyl]-5-oxopyrrolidin-1-yl}ethyl)benzoic acid]",1530,71,2600,2,
"C/C(=C\C=C/[C@H]1CCC(=O)N1CCc1ccc(C(=O)O)cc1)CC1CCCC1 [Example 30, 4-(2-{(2)-2-[(1Z,3E)-5-cyclopentyl-4-methylpenta-1,3-dienyl]-5-oxopyrrolidin-1-yl}ethyl)benzoic acid]",60,117,,,
"CCCC/C(C)=C/C=C\[C@H]1CCC(=O)N1CCCc1ccc(C(=O)O)s1 (single isomer, unassigned) [Example 13]",60,6,,,
"CCCC/C=C/C=C\[C@H]1CCC(=O)N1CCCc1ccc(C(=O)O)s1 [Example 17, 5-(3-{(2R)-2-[(1Z,3E)-octa-1,3-dienyl]-5-oxopyrrolidin-1-yl}propyl)thiophene-2-carboxylic acid]",44,51,,,
"C/C(=C\C=C\[C@H]1CCC(=O)N1CCc1ccc(C(=O)O)cc1)C(C)C [Example 55, 4-(2-{(2R)-2-[(1E,3E)-4,5-dimethylhexa-1,3-dienyl]-5-oxopyrrolidin-1-yl}ethyl)benzoic acid]",36,164,,,
O=C(O)c1ccc(CCN2C(=O)CC[C@@H]2/C=C\C=C2CCCCC2)cc1 [Example 56],27,307,,,
"CCCC/C=C/C=C\[C@H]1CCC(=O)N1CCc1ccc(C(=O)O)cc1 [Example 1, 4-(2-{(2R)-2-[(1Z,3E)-octa-1,3-dienyl]-5-oxopyrrolidin-1-yl}ethyl)benzoic acid]",88,25,197,20,
"CCC/C(C)=C/C=C\[C@H]1CCC(=O)N1CCc1ccc(C(=O)O)cc1 [Example 44, 4-(2-{(2R)-2-[(1Z,3E)-4-methylhepta-1,3-dienyl]-5-oxopyrrolidin-1-yl}ethyl)benzoic acid]",79,6,,,ED50 [7]: 1 mg/kg
"CCCC/C(C)=C/C=C\[C@H]1CCC(=O)N1CCCc1ccc(C(=O)O)s1 (single isomer, unassigned) [Example 19]",60,6,49,2,
"C/C(=C\C=C/[C@H]1CCC(=O)N1CCc1ccc(C(=O)O)cc1)c1ccccc1 [Example 32, 4-(2-{(2R)-2-[(1Z,3E)-4-phenylpenta-1,3-dienyl]-5-oxopyrrolidin-1-yl}ethyl)benzoic acid]",749,29,,,
"CC(C)=CCC/C(C)=C/C=C/[C@H]1CCC(=O)N1CCc1ccc(C(=O)O)cc1 [Example 12, 4-(2-{(2R)-2-[(1E,3E)-4,8-dimethylnona-1,3,7-trienyl]-5-oxopyrrolidin-1-yl}ethyl)benzoic acid]",750,470,,,
"CC(C)=CCC/C(C)=C/C=C\[C@H]1CCC(=O)N1CCc1ccc(C(=O)O)cc1 [Example 11, 4-(2-{(2R)-2-[(1Z,3E)-4,8-dimethylnona-1,3,7-trienyl]-5-oxopyrrolidin-1-yl}ethyl)benzoic acid]",410,45,1050,2,
